One cell line from the supplement of paper PMC10307832 can be followed below.

What all share (test): relative viability (nuclei count vs DMSO), 5 days (fraction); higher = more cells survive
Compound in experiment [1]: CC1=NN=C(O1)C2=NN=C(C=C2)N3CCC(CC3)OC4=C(C=CC(=C4)F)Cl + CC(C)C[C@H](NC(=O)[C@H](Cc1ccccc1)NC(=O)c1cnccn1)B(O)O [Bortezomib] (partner 0.002 µM)
The essentials:
(§1)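 The day after seeding in 1536-well plates, lung cancer cell lines were treated by pin tool with a single drug, or with a fixed anchor-drug dose together with five library-drug doses (not always all listed) in √10 steps. After 5 days, a combined fix-and-stain solution (final 0.05% Triton X-100, 1% formaldehyde, 1 ug/ml Hoechst) was added. Nuclei counted on 4× images gave relative viability as treated counts over vehicle counts, reported as the median of duplicate plates.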

Compound in experiment [2]: CC1=NN=C(O1)C2=NN=C(C=C2)N3CCC(CC3)OC4=C(C=CC(=C4)F)Cl + Nc1nc2[nH]cc(CCc3ccc(C(=O)N[C@@H](CCC(=O)O)C(=O)O)cc3)c2c(=O)[nH]1 [Pemetrexed] (partner 0.2 µM)
Summed up: as §1

Compound in experiment [3]: CC1=NN=C(O1)C2=NN=C(C=C2)N3CCC(CC3)OC4=C(C=CC(=C4)F)Cl + CCNC(=O)c1noc(-c2cc(C(C)C)c(O)cc2O)c1-c1ccc(CN2CCOCC2)cc1 [Luminespib] (partner 0.01 µM)
The essentials: as §1

Compound in experiment [4]: CC(C)C[C@@H](C(=O)N[C@H](C(=O)OC1CCCC1)c1ccccc1)[C@H](O)C(=O)NO [Tosedostat] + CC(=O)Nc1cccc(-n2c(=O)n(C3CC3)c(=O)c3c(Nc4ccc(I)cc4F)n(C)c(=O)c(C)c32)c1 [Trametinib] (partner 0.02 µM)
Summed up:
as §1

For the cell line UMC-11, the relative viability came to 0.66 in experiment [1] (first compound 0.253 µM); 0.533 in experiment [1] (first compound 0.8 µM); 0.636 in experiment [1] (first compound 2.53 µM); 0.575 in experiment [1] (first compound 8 µM); 0.504 in experiment [2] (first compound 0.253 µM); 0.535 in experiment [2] (first compound 0.8 µM). In addition, the relative viability in experiment [2] (first compound 2.53 µM) was 0.518; in experiment [2] (first compound 8 µM) it was 0.37; in experiment [3] (first compound 0.253 µM), 0.523; in experiment [3] (first compound 0.8 µM) it was 0.572; in experiment [3] (first compound 2.53 µM) it was 0.453; in experiment [3] (first compound 8 µM) it was 0.552. The relative viability came to 0.863 in experiment [4] (first compound 0.02 µM); 0.681 in experiment [4] (first compound 0.06325 µM); 0.663 in experiment [4] (first compound 0.2 µM); 0.855 in experiment [4] (first compound 0.6325 µM); 0.664 in experiment [4] (first compound 2 µM).
